Measured values as given in PubChem BioAssay (NCI).
Where “and” joins values, the source holds several entries; their conditions need not be identical. Equal values may be shown once.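 All cell lines were grown in 96-well plates and treated with compound for 48 hours. Abbreviation: GI50, concentration required for 50% inhibition of growth. The concentration for full growth arrest is given as TGI.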

Experiments:
Test in all cases: inhibition of tumour cell growth, NCI panel, 48 h
KM12 colon = tested on: KM12 colon
K-562 leukemia = tested on: K-562 leukemia
ACHN renal = tested on: ACHN renal
HOP-62 NSCLC = tested on: HOP-62 NSCLC
SK-MEL-2 melanoma = tested on: SK-MEL-2 melanoma
SNB-75 CNS = tested on: SNB-75 CNS
MDA-MB-435 = tested on: MDA-MB-435
BT-549 breast = tested on: BT-549 breast
M14 melanoma = tested on: M14 melanoma
UACC-62 melanoma = tested on: UACC-62 melanoma
SNB-19 CNS = tested on: SNB-19 CNS
IGROV1 ovarian = tested on: IGROV1 ovarian
MALME-3M melanoma = tested on: MALME-3M melanoma
MOLT-4 leukemia = tested on: MOLT-4 leukemia
HCC-2998 colon = tested on: HCC-2998 colon
TK-10 renal = tested on: TK-10 renal
OVCAR-3 ovarian = tested on: OVCAR-3 ovarian
HS 578T breast = tested on: HS 578T breast
HL-60(TB) leukemia = tested on: HL-60(TB) leukemia
CCRF-CEM leukemia = tested on: CCRF-CEM leukemia
MDA-MB-231 breast = tested on: MDA-MB-231 breast
T-47D breast = tested on: T-47D breast
SK-MEL-28 melanoma = tested on: SK-MEL-28 melanoma
HOP-92 NSCLC = tested on: HOP-92 NSCLC
UO-31 renal = tested on: UO-31 renal
OVCAR-4 ovarian = tested on: OVCAR-4 ovarian
LOX IMVI melanoma = tested on: LOX IMVI melanoma
SW-620 colon = tested on: SW-620 colon
OVCAR-5 ovarian = tested on: OVCAR-5 ovarian
HCT-15 colon = tested on: HCT-15 colon
NCI-H460 lung = tested on: NCI-H460 lung
SK-MEL-5 melanoma = tested on: SK-MEL-5 melanoma
UACC-257 melanoma = tested on: UACC-257 melanoma
NCI-H23 lung = tested on: NCI-H23 lung
SF-539 CNS = tested on: SF-539 CNS
NCI-H522 lung = tested on: NCI-H522 lung
U251 CNS = tested on: U251 CNS
RXF 393 renal = tested on: RXF 393 renal
A549 NSCLC = tested on: A549 NSCLC
SF-268 CNS = tested on: SF-268 CNS
SF-295 CNS = tested on: SF-295 CNS
NCI-H226 lung = tested on: NCI-H226 lung
EKVX NSCLC = tested on: EKVX NSCLC
CAKI-1 renal = tested on: CAKI-1 renal
SR leukemia = tested on: SR leukemia
HCT-116 colon = tested on: HCT-116 colon
MCF7 breast = tested on: MCF7 breast
HT29 colon = tested on: HT29 colon
SN12C renal = tested on: SN12C renal
SK-OV-3 ovarian = tested on: SK-OV-3 ovarian
786-0 renal = tested on: 786-0 renal
A498 renal = tested on: A498 renal
RPMI-8226 leukemia = tested on: RPMI-8226 leukemia
PC-3 prostate = tested on: PC-3 prostate
COLO 205 colon = tested on: COLO 205 colon
OVCAR-8 ovarian = tested on: OVCAR-8 ovarian
MDA-MB-468 breast = tested on: MDA-MB-468 breast
DU-145 prostate = tested on: DU-145 prostate

CC(=O)Nc1ccc(-c2cn(-c3cccc(C(=O)Nc4cc(C(F)(F)F)cc(C(F)(F)F)c4)c3)nn2)cn1
GI50 (KM12 colon): 0.417 µM | TGI (KM12 colon): 12.7 µM | GI50 (K-562 leukemia): 0.154 µM | TGI (K-562 leukemia): 10.5 µM | GI50 (ACHN renal): 11.1 µM | TGI (ACHN renal): 37.5 µM | GI50 (HOP-62 NSCLC): 8.56 µM | TGI (HOP-62 NSCLC): 22.5 µM | GI50 (SK-MEL-2 melanoma): 13.4 µM | TGI (SK-MEL-2 melanoma): 28.1 µM | GI50 (SNB-75 CNS): 5.84 µM | TGI (SNB-75 CNS): 28.4 µM | GI50 (MDA-MB-435): 11.7 µM | TGI (MDA-MB-435): 28.1 µM | GI50 (BT-549 breast): 3.37 µM | TGI (BT-549 breast): 8.51 µM | GI50 (M14 melanoma): 4.39 µM | TGI (M14 melanoma): 19.9 µM | GI50 (UACC-62 melanoma): 13.5 µM | TGI (UACC-62 melanoma): 29.8 µM | GI50 (SNB-19 CNS): 19.9 µM | TGI (SNB-19 CNS): 50.2 µM | GI50 (IGROV1 ovarian): 16.4 µM | TGI (IGROV1 ovarian): 35.3 µM | GI50 (MALME-3M melanoma): 3.26 µM | TGI (MALME-3M melanoma): 12.6 µM | GI50 (MOLT-4 leukemia): 1.94 µM | TGI (MOLT-4 leukemia): 6.12 µM | GI50 (HCC-2998 colon): 14 µM | TGI (HCC-2998 colon): 34.3 µM | GI50 (TK-10 renal): 26 µM | TGI (TK-10 renal): 49.3 µM | GI50 (OVCAR-3 ovarian): 7.7 µM | TGI (OVCAR-3 ovarian): 21.2 µM | GI50 (HS 578T breast): 6.17 µM | TGI (HS 578T breast): 48.9 µM | GI50 (HL-60(TB) leukemia): 1.23 µM | TGI (HL-60(TB) leukemia): 10.9 µM | GI50 (CCRF-CEM leukemia): 2.4 µM | TGI (CCRF-CEM leukemia): 6.76 µM | GI50 (MDA-MB-231 breast): 7.51 µM | TGI (MDA-MB-231 breast): 25.1 µM | GI50 (T-47D breast): 19.1 µM | TGI (T-47D breast): 91.6 µM | GI50 (SK-MEL-28 melanoma): 12.9 µM | TGI (SK-MEL-28 melanoma): 29.3 µM | GI50 (HOP-92 NSCLC): 2.7 µM | TGI (HOP-92 NSCLC): 8.6 µM | GI50 (UO-31 renal): 19.5 µM | TGI (UO-31 renal): 37.2 µM | GI50 (OVCAR-4 ovarian): 11.9 µM | TGI (OVCAR-4 ovarian): 31.7 µM | GI50 (LOX IMVI melanoma): 4.53 µM | TGI (LOX IMVI melanoma): 16.3 µM | GI50 (SW-620 colon): 7.85 µM | TGI (SW-620 colon): 24.1 µM | GI50 (OVCAR-5 ovarian): 18.7 µM | TGI (OVCAR-5 ovarian): 38.9 µM | GI50 (HCT-15 colon): 10.9 µM | TGI (HCT-15 colon): 33.1 µM | GI50 (NCI-H460 lung): 4.2 µM | TGI (NCI-H460 lung): 15.2 µM | GI50 (SK-MEL-5 melanoma): 16.4 µM | TGI (SK-MEL-5 melanoma): 33.2 µM | GI50 (UACC-257 melanoma): 12.9 µM | TGI (UACC-257 melanoma): 36 µM | GI50 (NCI-H23 lung): 14.2 µM | TGI (NCI-H23 lung): 33.5 µM | GI50 (SF-539 CNS): 10 µM | TGI (SF-539 CNS): 24.8 µM | GI50 (NCI-H522 lung): 12.3 µM | TGI (NCI-H522 lung): 30.8 µM | GI50 (U251 CNS): 3.85 µM | TGI (U251 CNS): 13.5 µM | GI50 (RXF 393 renal): 11.2 µM | TGI (RXF 393 renal): 26.4 µM | GI50 (A549 NSCLC): 4.54 µM | TGI (A549 NSCLC): 16.3 µM | GI50 (SF-268 CNS): 21 µM | TGI (SF-268 CNS): 64.7 µM | GI50 (SF-295 CNS): 14.2 µM | TGI (SF-295 CNS): 37.3 µM | GI50 (NCI-H226 lung): 13.8 µM | TGI (NCI-H226 lung): 30.1 µM | GI50 (EKVX NSCLC): 11.2 µM | TGI (EKVX NSCLC): 36.1 µM | GI50 (CAKI-1 renal): 17.3 µM | TGI (CAKI-1 renal): 45.1 µM | GI50 (SR leukemia): 1.89 µM | TGI (SR leukemia): 5.18 µM | GI50 (HCT-116 colon): 5.78 µM | TGI (HCT-116 colon): 27.7 µM | GI50 (MCF7 breast): 4.68 µM | TGI (MCF7 breast): 21.8 µM | GI50 (HT29 colon): 3.24 µM | TGI (HT29 colon): 12.9 µM | GI50 (SN12C renal): 11 µM | TGI (SN12C renal): 28.1 µM | GI50 (SK-OV-3 ovarian): 13.5 µM | TGI (SK-OV-3 ovarian): 34.1 µM | GI50 (786-0 renal): 3.41 µM | TGI (786-0 renal): 12 µM | GI50 (A498 renal): 25.4 µM | TGI (A498 renal): 42.1 µM | GI50 (RPMI-8226 leukemia): 3.46 µM | TGI (RPMI-8226 leukemia): 15 µM | GI50 (PC-3 prostate): 3.4 µM | TGI (PC-3 prostate): 10.8 µM | GI50 (COLO 205 colon): 7.14 µM | TGI (COLO 205 colon): 23.7 µM | GI50 (OVCAR-8 ovarian): 8.26 µM | TGI (OVCAR-8 ovarian): 24.4 µM | GI50 (MDA-MB-468 breast): 3.46 µM | TGI (MDA-MB-468 breast): 16.2 µM | GI50 (DU-145 prostate): 10.4 µM | TGI (DU-145 prostate): 29.5 µM

O=C(Nc1ccccc1O)c1ccc(CNC(=O)c2ccsc2Nc2ccnc(C(F)(F)F)c2)cc1
GI50 (MDA-MB-468 breast): 1.43 µM | TGI (MDA-MB-468 breast): 3.53 µM

C1=C2CNCC3=Cc4ccc5ccccc5c4OC23Oc2c1ccc1ccccc21
GI50 (MDA-MB-468 breast): 2.06 µM | TGI (MDA-MB-468 breast): 7.55 µM

Fc1c[c-]c(-c2ccccn2)c(F)c1.[CH3-].[Pt+2].c1ccc(P(C[PH+](c2ccccc2)c2ccccc2)c2ccccc2)cc1
GI50 (MDA-MB-468 breast): 0.325 µM | TGI (MDA-MB-468 breast): 0.946 µM

CCCNC(=O)CCC(C)[C@H]1CCC2C3C(C[C@H](OC(C)=O)[C@@]21C)[C@@]1(C)CCC2(C[C@H]1C[C@H]3OC(C)=O)OOC1(CCCCC1)OO2 (some centres undefined)
GI50 (MDA-MB-468 breast): 1.89 µM | TGI (MDA-MB-468 breast): 6.77 µM

COc1cc2nnn3c4ncccc4c(N=O)c3c2cc1OC
GI50 (MDA-MB-468 breast): 0.156 µM | TGI (MDA-MB-468 breast): 1.09 µM

CC(=O)Oc1ccc(C2(c3ccc(OC(C)=O)cc3)C(=O)Nc3ccccc32)cc1
GI50 (MDA-MB-468 breast): 0.0682 µM and 0.0738 µM | TGI (MDA-MB-468 breast): 40.8 µM and 91 µM

NC(=O)c1cc(I)ccc1NC(=O)COc1ccccc1
GI50 (MDA-MB-468 breast): 0.311 µM

O=C(Nc1ccc(Cl)cc1)Nc1ccccc1CNc1nc(Nc2ccc(OCCN3CCCC3)cc2)ncc1Cl
GI50 (MDA-MB-468 breast): 0.998 µM | TGI (MDA-MB-468 breast): 2.28 µM

CN(C)C/C=C/C(=O)Nc1ccc(C(=O)N2CCC[C@@H](Nc3ncc(Cl)c(-c4c[nH]c5ccccc45)n3)C2)cc1
GI50 (MDA-MB-468 breast): 0.0249 µM | TGI (MDA-MB-468 breast): 0.0722 µM

Cn1cnc([N+](=O)[O-])c1Sc1nc(N)nc2nc[nH]c12
GI50 (MDA-MB-468 breast): 0.884 µM | TGI (MDA-MB-468 breast): 6.11 µM

CCO/C=N/C1=C(C#N)C(c2ccc(Cl)cc2)c2sc3c(CC)cccc3c2O1 (centres undefined)
GI50 (MDA-MB-468 breast): 0.911 µM | TGI (MDA-MB-468 breast): 11 µM

CCCCCCOc1ccc(C(=N)N(CCCC)CCCC)c2ccccc12
GI50 (MDA-MB-468 breast): 0.59 µM | TGI (MDA-MB-468 breast): 2.01 µM
